Data on 13 molecules can be found in patent US7279477B2 (Chugai Seiyaku Kabushiki Kaisha, priority 2001, dated 2007).

For data set [1], the target named is T1, malonyl-CoA decarboxylase prepared from rat heart (Rattus norvegicus, UniProt Q920F5).
T1 construct: from tissue; host or cells: rat heart
T1 sequence (Q920F5 39-492): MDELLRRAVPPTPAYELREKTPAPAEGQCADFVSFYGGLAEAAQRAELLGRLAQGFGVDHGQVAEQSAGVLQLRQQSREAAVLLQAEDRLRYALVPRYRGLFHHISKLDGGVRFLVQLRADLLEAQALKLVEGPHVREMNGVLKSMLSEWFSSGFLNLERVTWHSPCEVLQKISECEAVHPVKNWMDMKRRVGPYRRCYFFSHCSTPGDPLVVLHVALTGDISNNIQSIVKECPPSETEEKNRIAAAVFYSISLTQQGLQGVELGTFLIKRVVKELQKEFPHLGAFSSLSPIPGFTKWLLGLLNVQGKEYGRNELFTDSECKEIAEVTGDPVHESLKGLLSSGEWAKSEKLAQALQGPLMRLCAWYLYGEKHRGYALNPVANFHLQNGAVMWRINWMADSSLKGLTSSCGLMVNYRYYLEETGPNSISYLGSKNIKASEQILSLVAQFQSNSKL
As to the kind of experiment: In vitro MCD inhibitory assay (spectrophotometric, 96 well). It counts as biochemical. Here is the method:
The following reagents are added into a 96 well titer plate: Tris-HCl buffer, 20 μL, DTE, 10 μL; I-malate, 20 μL; NAD, 10 μL; NADH, 25 μL; water, 80 μL; malic dehydrogenase, 5 μL. The contents are mixed and incubated for 2 min followed by the addition of 5 μL of citrate synthase.

In data set [2] the target is T2, carnitine palmitoyltransferase-I (CPT-I) muscle (M) isoform (Homo sapiens, UniProt Q92523).
T2 sequence (Q92523 1-772): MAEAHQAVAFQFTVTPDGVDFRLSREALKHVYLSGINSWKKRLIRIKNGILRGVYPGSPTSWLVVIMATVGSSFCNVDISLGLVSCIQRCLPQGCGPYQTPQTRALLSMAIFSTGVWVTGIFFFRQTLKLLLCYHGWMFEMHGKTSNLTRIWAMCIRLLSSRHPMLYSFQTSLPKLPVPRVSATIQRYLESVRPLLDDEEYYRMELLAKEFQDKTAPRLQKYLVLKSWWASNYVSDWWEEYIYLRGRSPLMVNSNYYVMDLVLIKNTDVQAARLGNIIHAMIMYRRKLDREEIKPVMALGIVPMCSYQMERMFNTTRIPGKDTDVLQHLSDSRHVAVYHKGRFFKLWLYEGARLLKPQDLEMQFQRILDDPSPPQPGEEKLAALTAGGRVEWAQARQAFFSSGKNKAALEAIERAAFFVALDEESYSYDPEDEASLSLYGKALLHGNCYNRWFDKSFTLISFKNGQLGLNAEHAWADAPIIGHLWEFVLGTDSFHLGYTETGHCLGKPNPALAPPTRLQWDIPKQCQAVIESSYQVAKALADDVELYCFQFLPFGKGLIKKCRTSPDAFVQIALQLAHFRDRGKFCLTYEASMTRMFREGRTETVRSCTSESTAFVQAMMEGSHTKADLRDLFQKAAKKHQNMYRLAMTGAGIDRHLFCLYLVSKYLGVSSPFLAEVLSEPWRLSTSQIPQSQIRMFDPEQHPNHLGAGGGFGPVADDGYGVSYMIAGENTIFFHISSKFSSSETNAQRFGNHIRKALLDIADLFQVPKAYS
The settings on record: read-out: IC50 of malonyl-CoA inhibition of CPT-I; cited from earlier work.

Data set [3] deals with breast carcinoma cells. Particulars: Pizer et al.; cited from earlier work.
Where [4] appears, read: MCD from rat heart, concentration causing 50% inhibition of MCD activity, read-out: IC50 of the MCD inhibitors.

Like-named read-outs stand apart in the source and are kept apart here.

The term IC50 denotes the concentration that inhibits the measured activity by half. As to `CCCCN(C(=S)N(CC)CC)c1ccc(C(O)(C(F)(F)F)C(F)(F)F)cc1` [Example 5-108], in data set [1] (setting [4]), the IC50 was 147 nM.
As for `CC(C)(COP(=O)(O)OP(=O)(O)OC[C@H]1O[C@@H](n2cnc3c(N)ncnc32)[C@H](O)[C@@H]1OP(=O)(O)O)[C@@H](O)C(=O)NCCC(=O)NCCSC(=O)CC(=O)O` [Malonyl-CoA], the IC50 in data set [2] was 30 nM.
As for `OC(c1ccc(N(Cc2ccc(C(F)(F)F)cc2)C(=S)N2CCOCC2)cc1)(C(F)(F)F)C(F)(F)F` [Example 1, morpholine-4-carbothioic acid [4-(2,2,2-trifluoro-1-hydroxy-1-trifluoromethyl-ethyl)-phenyl]-(4-trifluoromethyl-benzyl)-amide], the IC50 in data set [1] (setting [4]) was 123 nM.
For the molecule `COC(=O)CCCCN(C(=S)N1CCOCC1)c1ccc(C(O)(C(F)(F)F)C(F)(F)F)cc1` [Example 5-48], the IC50 in data set [1] (setting [4]) is 45 nM.
`CCCCN(C(=N)N(CC)CC)c1ccc(C(O)(C(F)(F)F)C(F)(F)F)cc1.Cl` [Example 4, butyl {4-[2,2,2-trifluoro-1-hydroxy-1-(trifluoromethyl)ethyl]phenyl}amino)(diethylamino)methaniminium chloride]: the IC50 in data set [1] (setting [4]) is 164 nM.
On to `CC(C)(C)OC(=O)CCNC(=O)C1CC(c2ccc(C(O)(C(F)(F)F)C(F)(F)F)cc2)=NO1` (stereo not drawn) [Example 12, 1,1-dimethylethyl N-[(3-{4-[2,2,2-trifluoro-1-hydroxy-1-(trifluoromethyl)ethyl]phenyl}-4,5-dihydroisoxazol-5-yl)carbonyl]-beta-alaninate], for which, in data set [1] (setting [4]), the IC50 is 515 nM.
In the case of `CCOP(=O)(OCC)N(CC)c1ccc(C(O)(C(F)(F)F)C(F)(F)F)cc1` [Example 28, diethyl ethyl{4-[2,2,2-trifluoro-1-hydroxyl-1-(trifluoromethyl)ethyl]phenyl}amidophosphate], it took 90 nM to reach half-maximal inhibition in data set [1] (IC50).
As to `CCCCCCCCCCCCCCOc1ccc(C(=O)O)o1` [TOFA, 5-(tetradecyloxy)-2-furoic acid], the malonyl-CoA level in data set [3] is 60 % of the control.
One may read the melting point as the temperature, or range, at which the solid turns liquid. Regarding `CCCCN(C(=N)N(CC)CC)c1ccc(C(O)(C(F)(F)F)C(F)(F)F)cc1.Cl` [Example 4], the melting point is 217.1 to 219.2 °C (dec.).
Take `CCCCNC(=O)c1c(-c2ccccc2)nc(-c2ccc(C(O)(C(F)(F)F)C(F)(F)F)cc2)n1CCC` [Example 22, N-butyl-4-phenyl-1-propyl-2-{4-[2,2,2-trifluoro-1-hydroxy-1-(trifluoromethyl)ethyl]phenyl}-1H-imidazole-5-carboxamide]: in data set [1] (setting [4]), the IC50 stood at 354 nM.
For `N#CCCCCN(C(=S)N1CCOCC1)c1ccc(C(O)(C(F)(F)F)C(F)(F)F)cc1` [Example 2, N-(4-cyanobutyl)-N-{4-[2,2,2-trifluoro-1-hydroxy-1-(trifluoromethyl)ethyl]phenyl}morpholine-4-carbothioamide], in data set [1] (setting [4]), the half-inhibitory concentration (IC50) was determined as 42 nM.
In the case of `CCCC(O)(CCC)c1ccc(C(O)(C(F)(F)F)C(F)(F)F)cc1` [Example 15], in data set [1] (setting [4]), the IC50 came out at 127 nM.
For the molecule `CCCCNC(=O)c1c(-c2ccccc2)nc(-c2ccc(C(O)(C(F)(F)F)C(F)(F)F)cc2)n1C(C)C` [Example 23-11], the half-inhibitory concentration (IC50) in data set [1] (setting [4]) was 44 nM.
